Experimental data reported in ChEMBL document CHEMBL1138490, “Gamma-aminobutyric acid amides of nortriptyline and fluoxetine display improved pain suppressing activity” (2009).
Calls of active or inactive are those of the source. The calls are words filed in the database; no cut-off is given here.

Legend:
Mus musculus [1] = experiment: Antinociceptive activity in BALB/c mouse assessed as […] at 10 mg/kg, po after 240 mins by hot plate method; assay type: functional, organism-based; design: dose 10 mg/kg
Mus musculus [2] = experiment: Anxiolytic activity in BALB/c mouse assessed as distance moved at equimolar oral dose relative to 10 mg/kg fluoxetine after 90 mins by open-field test (RVb= 8485+/-610 cm); assay type: functional
Mus musculus [3] = experiment: Antinociceptive activity against formalin-induced neurogenic pain in BALB/c mouse assessed paw licking, biting or shaking at 30 mg/kg, po administered 2 hrs before formalin challenge measured relative to control; assay type: functional, organism-based; design: dose 30 mg/kg
Mus musculus [4] = experiment: Antinociceptive activity in BALB/c mouse assessed as paw withdrawal latency at 0.4 mg/kg, po equimolar dose of nortriptyline after 2 to 4 hrs by hot plate method; assay type: functional, organism-based; design: dose 0.4 mg/kg
Mus musculus [5] = experiment: Anxiolytic activity in BALB/c mouse assessed as velocity at equimolar oral dose relative to 20 mg/kg fluoxetine after 90 mins by open-field test (RVb= 7.07+/-0.51 cm/s); assay type: functional
Mus musculus [6] = experiment: Antinociceptive activity in BALB/c mouse assessed as increase in paw withdrawal latency time at 10 mg/kg, po daily measured after 3 to 5 hrs on day 1 on day 1 to 11; assay type: functional, organism-based; design: dose 10 mg/kg
Mus musculus [7] = experiment: Anxiolytic activity in BALB/c mouse assessed as velocity at equimolar oral dose relative to 5 mg/kg fluoxetine after 90 mins by open-field test (RVb= 7.07+/-0.51 cm/s); assay type: functional
Mus musculus [8] = experiment: Anxiolytic activity in BALB/c mouse assessed as immobility at equimolar oral dose relative to 5 mg/kg fluoxetine after 90 mins by open-field test (RVb= 458.4+/-41 s); assay type: functional
Mus musculus [9] = experiment: Anxiolytic activity in BALB/c mouse assessed as immobility at equimolar oral dose relative to 20 mg/kg fluoxetine after 90 mins by open-field test (RVb= 458.4+/-41 s); assay type: functional
Mus musculus [10] = experiment: Antinociceptive activity against formalin-induced neurogenic pain in BALB/c mouse assessed paw licking, biting or shaking during at 10 mg/kg, po equimolar oral dose fluoxetine administered 2 hrs before formalin challenge measured relative to control; assay type: functional, organism-based; design: dose 10 mg/kg
Mus musculus [11] = experiment: Anxiolytic activity in BALB/c mouse assessed as distance moved at equimolar oral dose relative to 5 mg/kg fluoxetine after 90 mins by open-field test (RVb= 8485+/-610 cm); assay type: functional
Mus musculus [12] = experiment: Antinociceptive activity in BALB/c mouse assessed as paw withdrawal latency at 0.4 mg/kg, po after 2 to 4 hrs by hot plate method; assay type: functional, organism-based; design: dose 0.4 mg/kg
Mus musculus [13] = experiment: Antinociceptive activity in BALB/c mouse assessed as increase in paw withdrawal latency time at 10 mg/kg, po equimolar dose of fluoxetine daily measured after 3 to 5 hrs on day 1 to 11; assay type: functional, organism-based; design: dose 10 mg/kg
Mus musculus [14] = experiment: Anxiolytic activity in BALB/c mouse assessed as immobility at equimolar oral dose relative to 10 mg/kg fluoxetine after 90 mins by open-field test (RVb= 458.4+/-41 s); assay type: functional
Mus musculus [15] = experiment: Anxiolytic activity in BALB/c mouse assessed as velocity at equimolar oral dose relative to 10 mg/kg fluoxetine after 90 mins by open-field test (RVb= 7.07+/-0.51 cm/s); assay type: functional
Mus musculus [16] = experiment: Antinociceptive activity in BALB/c mouse assessed as […] at 20 to 40 mg/kg, po equimolar dose of nortriptyline after 240 mins by hot plate method; assay type: functional, organism-based
Mus musculus [17] = experiment: Antinociceptive activity in BALB/c mouse assessed as […] at 10 mg/kg, po equimolar dose of nortriptyline after 240 mins by hot plate method; assay type: functional, organism-based; design: dose 10 mg/kg
Mus musculus [18] = experiment: Anxiolytic activity in BALB/c mouse assessed as distance moved at equimolar oral dose relative to 20 mg/kg fluoxetine after 90 mins by open-field test (RVb= 8485+/-610 cm); assay type: functional
Mus musculus [19] = experiment: Antinociceptive activity against formalin-induced neurogenic pain in BALB/c mouse assessed paw licking, biting or shaking during at 10 mg/kg, po administered 2 hrs before formalin challenge measured relative to control; assay type: functional, organism-based; design: dose 10 mg/kg
Mus musculus [20] = experiment: Antinociceptive activity against formalin-induced neurogenic pain in BALB/c mouse assessed paw licking, biting or shaking at to 30 mg/kg, po equimolar dose of fluoxetine administered 2 hrs before formalin challenge measured relative to control; assay type: functional, organism-based; design: dose 30 mg/kg

Compound | Activity (Mus musculus [1]) | Activity (Mus musculus [2]) [cm] | Activity (Mus musculus [3]) | Activity (Mus musculus [4]) | Activity (Mus musculus [5]) [cm/s] | Activity (Mus musculus [6]) | Activity (Mus musculus [7]) [cm/s] | Activity (Mus musculus [8]) [s] | Activity (Mus musculus [9]) [s] | Activity (Mus musculus [10]) | Activity (Mus musculus [11]) [cm] | Activity (Mus musculus [12]) | Activity (Mus musculus [13]) | Activity (Mus musculus [14]) [s] | Activity (Mus musculus [15]) [cm/s] | Activity (Mus musculus [16]) | Activity (Mus musculus [17]) | Activity (Mus musculus [18]) [cm] | Activity (Mus musculus [19]) | Activity (Mus musculus [20])
CNCCC(Oc1ccc(C(F)(F)F)cc1)c1ccccc1 (stereo not given) | Active |  |  |  |  |  |  |  |  |  |  |  |  |  |  |  |  |  |  | 
CN(CCC(Oc1ccc(C(F)(F)F)cc1)c1ccccc1)C(=O)CCCN.Cl (stereo not given) |  | 8003 | Active | Active | 5.39 | Active | 6.47 | 501.5 | 639.9 | Active | 7767 | Active | Active | 536.3 | 6.67 | Active | Active | 6462 | Active | Active
